According to patent US12441730B2, “PRMT5 inhibitors” (Merck Sharp & Dohme LLC, priority 2019, dated 2025):
Read-outs that look alike come from different tables or passages of the source.

Experiments:
[1] = molecular target: T1, Full-length (FL)-PRMT5-MEP50 enzyme complex (Homo sapiens, UniProt O14744); experiment: PRMT5-MEP50 Enzyme Methylation Assay (Version B); assay type: biochemical
T1 construct: Full-length (FL)-PRMT5-MEP50 enzyme complex (recombinant proteins from baculovirus-transfected Sf21 cells: FL-PRMT5; MW=73837 kDa and FL-MEP50; MW=38614); made in house; host or cells: baculovirus-transfected Sf21 cells
Procedure: PRMT5-MEP50 Enzyme Methylation Assay (Version B)
PRMT5/MEP50 biochemical assay is a direct measurement of the methylation activity of the enzyme complex on a short peptide substrate derived from the N-terminus of H4 histone. Methylation experiment was performed with recombinant protein. The assessment of inhibitory effect (IC50) of small molecules was measured by the effectiveness of the compounds to inhibit this reaction.
In this assay, the potency (IC50) of each compound was determined from a twenty-point (1:2 serial dilution; top compound concentration of 100000 nM) titration curve using the following outlined procedure. To each well of a white ProxiPlus 384 well-plate, 100 nL of compound (1% DMSO in final assay volume of 10 μL) was dispensed, followed by the addition of 8 μL of 1× assay buffer (50 mM Bicine pH 8.0, 1 mM DTT, 0.004% Tween20, 0.01% BSA) containing 0.5 nM of Full-length (FL)-PRMT5-MEP50 enzyme complex (recombinant proteins from baculovirus-transfected Sf21 cells: FL-PRMT5; MW=[…] and FL-MEP50; MW=38614). Plates were sealed and placed in a 37° C. humidified chamber for 30 minutes pre-incubation with compounds. Subsequently, each reaction was initiated by the addition of 2 μL 1× assay buffer containing 75 nM biotinylated H4R3 (Me1) peptide, and 15 μM S-(5′-Adenosyl)-L-Methionine Chloride (SAM). The final reaction in each well of 10 μL consists of 0.5 nM PRMT5-MEP50, 75 nM biotinylated-peptide, and 15 μM SAM. Methylation reactions were allowed to proceed for 150 minutes in a sealed plate at 37° C. Reactions were immediately quenched by the addition of 1 μL of 10% formic acid. Plates were then frozen and shipped to SAMDI™ Tech Inc. to determine the percent conversion from […]. EC50 values were determined by non-linear regression according to models for either sigmoidal (4 parameters) or biphasic (7 parameters) dose-response curves.

[2] = tested on: symmetric dimethylation of arginine (SDMA) of PRMT5 substrates in MCF-7 cells; experiment: PRMT5 Cell Target Engagement (TE) Assay; assay type: cell-based; settings: Homo sapiens, MCF7, 72 h, 3 days treatment, SDMA high content imaging
Procedure, shortened: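 Readout is single-cell nuclear symmetric-dimethylarginine immunofluorescence (Alexa488), normalized to DMSO-treated cells. Compounds were applied to MCF-7 cells for 3 days at 37 °C, top concentration 10000 nM in 1:3 steps over ten points; curves fitted with 4-parameter robust fit.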

[3] = second value of 7 parameter biphasic fit, read-out: Enzyme Methylation Assay Version B (EC50 2)
[4] = single EC50 = 4 parameter single site sigmoidal fit, EC50 1 = first value of 7 parameter biphasic fit, read-out: Enzyme Methylation Assay Version B (EC50 or EC50 1)

T1 sequence (O14744 whole entry): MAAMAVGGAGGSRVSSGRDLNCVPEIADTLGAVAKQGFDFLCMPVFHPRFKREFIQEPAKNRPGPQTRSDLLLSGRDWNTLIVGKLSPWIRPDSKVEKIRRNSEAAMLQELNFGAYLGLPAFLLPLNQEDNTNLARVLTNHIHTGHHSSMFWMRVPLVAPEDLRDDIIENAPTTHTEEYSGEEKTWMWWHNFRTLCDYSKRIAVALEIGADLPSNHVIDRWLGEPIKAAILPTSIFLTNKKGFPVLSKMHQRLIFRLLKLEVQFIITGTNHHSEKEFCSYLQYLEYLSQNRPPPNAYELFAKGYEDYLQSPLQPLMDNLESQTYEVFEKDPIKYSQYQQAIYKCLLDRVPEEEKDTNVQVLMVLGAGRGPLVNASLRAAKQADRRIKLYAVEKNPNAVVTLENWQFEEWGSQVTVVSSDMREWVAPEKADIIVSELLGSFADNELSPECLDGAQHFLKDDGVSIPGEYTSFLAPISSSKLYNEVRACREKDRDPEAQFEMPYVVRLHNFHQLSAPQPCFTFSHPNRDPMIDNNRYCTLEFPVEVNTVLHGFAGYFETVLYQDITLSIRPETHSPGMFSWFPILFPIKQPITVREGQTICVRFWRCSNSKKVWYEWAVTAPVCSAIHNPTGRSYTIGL
T1 sequence (Q9BQA1 whole entry partner): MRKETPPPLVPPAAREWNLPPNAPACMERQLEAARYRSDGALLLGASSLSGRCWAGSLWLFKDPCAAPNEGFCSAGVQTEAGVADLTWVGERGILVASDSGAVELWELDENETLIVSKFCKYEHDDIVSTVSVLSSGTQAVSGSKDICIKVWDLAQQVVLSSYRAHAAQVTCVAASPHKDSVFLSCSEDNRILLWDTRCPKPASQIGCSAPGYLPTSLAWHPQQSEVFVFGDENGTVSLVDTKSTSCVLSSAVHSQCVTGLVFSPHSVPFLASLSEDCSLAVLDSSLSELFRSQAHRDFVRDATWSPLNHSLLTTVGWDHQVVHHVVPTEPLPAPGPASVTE

Row | Structure (SMILES) | EC50 [1, 3] | EC50 [1, 4] | EC50 [2]
1 | O=C(c1ccc(C(=O)N2C3CCC2COC3)cc1)N1CCC2(CC1)Cc1ccccc1CN2 [Example 173, (4-(3-oxa-8-azabicyclo[3.2.1]octane-8-carbonyl)phenyl)(1,4-dihydro-2H-spiro[isoquinoline-3,4′-piperidin]-1′-yl)methanone] | 14400 nM | 32.3 nM | 5310 nM
2 | CC(=O)N1CCC(Nc2cc(C(=O)N3CCC4(CC3)Cc3ccccc3CN4)ccn2)CC1 [Example 174, 1-(4-((4-(1,4-dihydro-2H-spiro[isoquinoline-3,4′-piperidine]-1′-carbonyl)pyridin-2-yl)amino)piperidin-1-yl)ethan-1-one] | 8840 nM | 13.3 nM | 797 nM
3 | [2H]C1([2H])NC2(CCN(C(=O)c3ccc(C(=O)N4C5CCC4COC5)cc3OCC)CC2)Cc2ccccc21 [Example 175, (4-(3-oxa-8-azabicyclo[3.2.1]octane-8-carbonyl)-2-ethoxyphenyl)(1,4-dihydro-2H-spiro[isoquinoline-3,4′-piperidin]-1′-yl-1,1-d2)methanone] | 2490 nM | 6.32 nM | 156 nM
4 | O=C(c1ccc(C(=O)N2C3CCC2COC3)cc1OC1CC1)N1CCC2(CC1)Cc1ccccc1CN2 [Example 176, (4-(3-oxa-8-azabicyclo[3.2.1]octane-8-carbonyl)-2-cyclopropoxyphenyl)(1,4-dihydro-2H-spiro[isoquinoline-3,4′-piperidin]-1′-yl)methanone] | 2860 nM | 11 nM | 253 nM
